{
  "source": "paper PMC4862670",
  "about": "“Biochemical Effect of Resistance Mutations against Synergistic Inhibitors of RSV RNA Polymerase” (PLoS ONE, 2016)",
  "key": {"WT RSV L-P [1]": {"molecular_target": "T1, WT RSV L-P (Human respiratory syncytial virus A, UniProt P28887)", "T1 construct": "made in house; host or cells: insect cells", "assay_type": "biochemical", "description": "The recombinant RSV polymerase complex was produced by co-expressing the L and P proteins of RSV in insect cells as previously described. Unless otherwise specified, RNA polymerase reaction samples consisted of 0.2 μM of an oligonucleotide template sequence derived from the RSV leader promoter (5'-[…]-3') and 0.2 μM recombinant RSVL-P polymerase together with 200 μM 5'-pACGC primer, mixed in a buffer containing 20 mM Tris pH 7.5, 10 mM KCl, 2 mM dithiothreitol, 0.5% triton X-100, 10% DMSO, 0.2 U/μL RNasin (Ambion), and 6 mM MgCl2. Reactions were started by adding specific NTPs to a final volume of 10 μL and incubated at 30°C. The radioisotope tracer used for this assay was α^33P-GTP. To measure the incorporation of GTP analogs, the oligonucleotide template sequence was modified to 5'-[…]-3'. Reactions were stopped after 30 minutes by adding an equal volume of gel loading buffer (Ambion). Samples were denatured at 95°C for 5 minutes, and run for 1.5 hours at 80 W in a 22.5% polyacrylamide urea sequencing gel. After the gel was dried, the product of migration was exposed to a phosphor-screen and scanned on a Typhoon phosphorimager (GE Healthcare) and quantified using ImageQuant (GE Healthcare). For each enzyme, the level of NTP analog discrimination was calculated as Km NTP analog / Km NTP, and the corresponding resistance as Mutantdiscrimination / WTdiscrimination."}, "[2]": {"molecular_target": "T2, QUAD RSV L-P (M628L, A789V, L795I, I796V) (Human respiratory syncytial virus A, UniProt P28887, A789V/I796V/L795I/M628L)", "test": "Single nucleotide incorporation (primer extension) by recombinant RSV L-P, QUAD mutant", "assay_type": "biochemical", "settings": "for Discrimination (Km NTP analog / Km NTP) / Km: QUAD RSV L-P; for Km: single nucleotide incorporation; for Resistance (QUADdiscrimination / WTdiscrimination): QUAD vs WT RSV L-P"}, "[3]": {"tested_on": "WT RSV L polymerase-dependent luciferase activity", "test": "cells", "assay_type": "cell-based, Respiratory syncytial virus (RSV)", "settings": "human respiratory syncytial virus, HEp-2 cells, minigenome luciferase"}, "[4]": {"tested_on": "QUAD RSV L polymerase-dependent luciferase activity", "test": "cells", "assay_type": "cell-based, Respiratory syncytial virus (RSV), HEp-2 cells"}, "Y1631H RSV polymerase": {"molecular_target": "Y1631H RSV polymerase (Human respiratory syncytial virus A, UniProt P28887, Y1631H)", "test": "Single nucleotide incorporation, Y1631H mutant", "assay_type": "biochemical"}, "WT RSV L-P [5]": {"molecular_target": "T1, WT RSV L-P", "settings": "cited from earlier work"}, "[6]": {"molecular_target": "T2, QUAD RSV L-P (M628L, A789V, L795I, I796V)", "settings": "cited from earlier work"}, "[7]": {"molecular_target": "RSV polymerase containing the Y1631H mutation in the L subunit (Human respiratory syncytial virus A, UniProt P28887, Y1631H)", "test": "Biotin-primer extension RdRp assay, Y1631H", "assay_type": "biochemical", "settings": "Y1631H IC50 vs WT IC50"}, "WT RSV L-P [8]": {"molecular_target": "T1, WT RSV L-P", "assay_type": "biochemical", "settings": "10 μM"}, "RSV L-P dimer": {"molecular_target": "T3, RSV L-P dimer (Human respiratory syncytial virus A, UniProt P28887)", "T3 construct": "made in house; host or cells: insect cells", "test": "Ni-NTA pull-down assay of RSV L-P", "assay_type": "binding", "settings": "10 μM, 30 minutes pre-incubation", "description": "The enzyme-inhibitor complex was pre-incubated for 30 minutes, after which nickel beads were used to pull down the histidine-tagged P subunit. The bound protein was washed on the beads and visualized by SDS PAGE. When the experiment was performed in the presence of DMSO, the untagged L subunit remained noncovalently bound to P (Fig 6A, lane 1).\nBeads were collected by centrifugation, and washed in 500 μL buffer containing 20mM Tris pH 7.5, 10 mM KCl, 6 mM MgCl2, 0.01% Triton X-100, and 2 mM DTT. Beads were resuspended in 20 μL loading buffer (4% SDS, 20% glycerol, 0.12M Tris pH 7, and 10% BME) and heated for 5 minutes at 95°C. Samples were run on a 4% to 12% SDS PAGE gel alongside PageRuler prestained marker (Invitrogen) and stained using SimplyBlue SafeStain (Thermo Fisher Scientific)."}, "[9]": {"tested_on": "Nc1ccn([C@@H]2O[C@](CCl)(COP(=O)(O)OP(=O)(O)OP(=O)(O)O)[C@@H](O)[C@H]2O)c(=O)n1", "test": "purified protein, by the assay type", "settings": "pH 7.5"}, "[10]": {"tested_on": "[N-]=[N+]=N[C@]1(COP(=O)(O)OP(=O)(O)OP(=O)(O)O)O[C@@H](n2ccc(N)nc2=O)[C@H](F)[C@@H]1O", "test": "purified protein, by the assay type", "settings": "pH 7.5"}, "[11]": {"settings": "WT RSV L-P, single nucleotide incorporation"}},
  "note": "Where “and” joins values, the source holds several entries; their conditions need not be identical. Equal values may be shown once. Read-outs that look alike come from different tables or passages of the source.",
  "data": [
    {"molecule": "2'F-4'ClCH2-ATP", "values": [
      {"measurement": "Chain termination effect", "setting": "WT RSV L-P [1]", "value": "immediate chain terminator"},
      {"measurement": "Discrimination (Km NTP analog / Km NTP)", "setting": "WT RSV L-P [1]", "value": "12 fold and 12±2.5 fold"},
      {"measurement": "Km", "setting": "WT RSV L-P [1]", "value": "27 ± 7.8", "unit": "µM"},
      {"measurement": "Discrimination (Km NTP analog / Km NTP)", "setting": "[2]", "value": "12.9±1.1", "unit": "fold"},
      {"measurement": "Km", "setting": "[2]", "value": "23.6 ± 5.8", "unit": "µM"},
      {"measurement": "Resistance (QUADdiscrimination / WTdiscrimination)", "setting": "[2]", "value": 1.1, "unit": "fold"}
    ]},
    {"molecule": "2'F-4'ClCH2-GTP", "values": [
      {"measurement": "Chain termination effect", "setting": "WT RSV L-P [1]", "value": "did not completely block RNA synthesis"},
      {"measurement": "Discrimination (Km NTP analog / Km NTP)", "setting": "WT RSV L-P [1]", "value": "5.6±0.6", "unit": "fold"},
      {"measurement": "Km", "setting": "WT RSV L-P [1]", "value": "5.8 ± 1.4", "unit": "µM"},
      {"measurement": "Discrimination (Km NTP analog / Km NTP)", "setting": "[2]", "value": "94.4 fold and 94.4±17.7 fold"},
      {"measurement": "Km", "setting": "[2]", "value": "31.1 ± 15", "unit": "µM"},
      {"measurement": "Resistance (QUADdiscrimination / WTdiscrimination)", "setting": "[2]", "value": 17, "unit": "fold"}
    ]},
    {"molecule": "C[C@@H](F)[C@]1(COP(=O)(O)OP(=O)(O)OP(=O)(O)O)O[C@@H](n2ccc(N)nc2=O)[C@H](F)[C@@H]1O", "note": "[1-fluoroethyl (FCH3CH2)]", "values": [
      {"measurement": "Resistance (QUADdiscrimination / WTdiscrimination)", "setting": "[2]", "value": "> 3", "unit": "fold"}
    ]},
    {"molecule": "Nc1ccn([C@@H]2O[C@@](CO)(CBr)[C@@H](O)[C@H]2F)c(=O)n1", "note": "[2'F-4'BrCH2-cytidine]", "values": [
      {"measurement": "EC50", "setting": "[3]", "value": "1.6 ± 0.6", "unit": "µM"},
      {"measurement": "Loss in inhibition potency in the presence of the QUAD mutations", "setting": "[4]; QUAD vs WT minigenome", "value": 47, "unit": "fold"}
    ]},
    {"molecule": "[N-]=[N+]=N[C@]1(COP(=O)(O)OP(=O)(O)OP(=O)(O)O)O[C@@H](n2ccc(N)nc2=O)[C@H](F)[C@@H]1O", "note": "[2'F-4'N3-CTP]", "values": [
      {"measurement": "Resistance (QUADdiscrimination / WTdiscrimination)", "setting": "[2]; listed as azido (N3-)", "value": "no resistance"}
    ]},
    {"molecule": "[N-]=[N+]=N[C@]1(CO)O[C@@H](n2ccc(N)nc2=O)[C@H](F)[C@@H]1O", "note": "[2'F-4'N3-cytidine]", "values": [
      {"measurement": "EC50", "setting": "[3]", "value": "1.3 ± 0.3", "unit": "µM"},
      {"measurement": "EC50", "setting": "[4]; human respiratory syncytial virus, QUAD L, HEp-2 cells, minigenome luciferase", "value": "2.2 ± 0.5", "unit": "µM"}
    ]},
    {"molecule": "Nc1ccn([C@@H]2O[C@](CCl)(COP(=O)(O)OP(=O)(O)OP(=O)(O)O)[C@@H](O)[C@H]2F)c(=O)n1", "note": "[ALS-8112-TP, 2'F-4'ClCH2-cytidine triphosphate]", "values": [
      {"measurement": "Resistance (QUADdiscrimination / WTdiscrimination)", "setting": "[2]; listed as chloromethyl (ClCH2)", "value": "> 3", "unit": "fold"},
      {"measurement": "Discrimination of the CTP analog", "setting": "Y1631H RSV polymerase", "value": 18, "unit": "fold"},
      {"measurement": "Discrimination", "setting": "WT RSV L-P [5]; WT RSV polymerase", "value": 13, "unit": "fold"},
      {"measurement": "Resistance (increase in discrimination by QUAD)", "setting": "[6]; QUAD vs WT RSV L-P", "value": 4.6, "unit": "fold"}
    ]},
    {"molecule": "O=C(NC1CC1)c1cc2c(s1)-c1ccccc1N(C(=O)c1ccc(NC(=O)c3cccnc3N3CCC4(CC3)COC4)cc1)CC2", "note": "[AZ-27]", "values": [
      {"measurement": "Resistance compared to the WT enzyme", "setting": "[7]", "value": 940, "unit": "fold"},
      {"measurement": "Inhibition of +1 and +2 RNA products", "setting": "WT RSV L-P [8]; 30-minute reaction", "value": "no inhibition"},
      {"measurement": "Inhibition of +4–7 RNA products", "setting": "WT RSV L-P [8]; 30-minute reaction, position +4 and beyond", "value": "75–85%"},
      {"measurement": "Inhibition behavior with respect to NTPs", "setting": "WT RSV L-P [8]; ATP+CTP from 1 to 100 μM", "value": "non-competitive inhibition behavior"},
      {"measurement": "Effect on L binding to P (L-P complex stability)", "setting": "RSV L-P dimer", "value": "did not inhibit the ability of L to bind to P"}
    ]},
    {"molecule": "Nc1ccn([C@@H]2O[C@](CBr)(COP(=O)(O)OP(=O)(O)OP(=O)(O)O)[C@@H](O)[C@H]2F)c(=O)n1", "note": "[bromomethyl (BrCH2)]", "values": [
      {"measurement": "Resistance (QUADdiscrimination / WTdiscrimination)", "setting": "[2]", "value": "> 3", "unit": "fold"}
    ]},
    {"molecule": "Nc1ccn([C@@H]2O[C@@](COP(=O)(O)OP(=O)(O)OP(=O)(O)O)(C3CC3)[C@@H](O)[C@H]2F)c(=O)n1", "note": "[cyclopropyl (CH2CH2CH2)]", "values": [
      {"measurement": "Resistance (QUADdiscrimination / WTdiscrimination)", "setting": "[2]", "value": "no resistance"}
    ]},
    {"molecule": "Nc1ccn([C@@H]2O[C@](CF)(COP(=O)(O)OP(=O)(O)OP(=O)(O)O)[C@@H](O)[C@H]2F)c(=O)n1", "note": "[fluoromethyl (FCH2)]", "values": [
      {"measurement": "Resistance (QUADdiscrimination / WTdiscrimination)", "setting": "[2]", "value": "> 3", "unit": "fold"}
    ]},
    {"molecule": "CSC[C@]1(COP(=O)(O)OP(=O)(O)OP(=O)(O)O)O[C@@H](n2ccc(N)nc2=O)[C@H](F)[C@@H]1O", "note": "[methyl-thio-methyl (CH3SCH2)]", "values": [
      {"measurement": "Resistance (QUADdiscrimination / WTdiscrimination)", "setting": "[2]", "value": "no resistance"}
    ]},
    {"molecule": "(Human respiratory syncytial virus A2)", "values": [
      {"measurement": "Km", "setting": "[9]", "value": "19.7 ± 6.7", "unit": "µM"},
      {"measurement": "Km", "setting": "[10]", "value": "0.62 ± 0.042", "unit": "µM"}
    ]},
    {"molecule": "ATP [reference compound]", "values": [
      {"measurement": "Km", "setting": "WT RSV L-P [1]; [11]", "value": "2.2 ± 0.2", "unit": "µM"},
      {"measurement": "Km", "setting": "[2]", "value": "1.8 ± 0.3", "unit": "µM"}
    ]},
    {"molecule": "CTP [reference compound]", "values": [
      {"measurement": "Km", "setting": "Y1631H RSV polymerase", "value": "0.042 ± 0.009", "unit": "µM"},
      {"measurement": "Km", "setting": "WT RSV L-P [5]; WT RSV L-P, n = 4, read-out: Km CTP", "value": "0.056 ± 0.01", "unit": "µM"},
      {"measurement": "Km", "setting": "[6]; QUAD RSV L-P, n = 2, read-out: Km CTP", "value": "0.028 ± 0.005", "unit": "µM"}
    ]},
    {"molecule": "GTP [reference compound]", "values": [
      {"measurement": "Km", "setting": "WT RSV L-P [1]; [11]", "value": "1.1 ± 0.4", "unit": "µM"},
      {"measurement": "Km", "setting": "[2]", "value": "0.3 ± 0.1", "unit": "µM"}
    ]}
  ]
}
